Experimental data as given in US20160046618A1, “Cyclopropyl Fused Thiazin-2-Amine Compounds as Beta-Secretase Inhibitors and Methods of Use” (AMGEN INC., priority 2014, published 2016).

Columns and labels:
[1] = molecular target: human recombinant BACE1 (Homo sapiens (Human), UniProt P56817); experiment: In vitro enzymatic BACE1 FRET assay; assay type: biochemical; conditions: read-out: IC50 IP (μM) BACE1 enzyme
Procedure, shortened: (§1)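 Read-out: dequenched fluorescence, excitation 488 nm, emission 590 nm, after proteolysis of a quenched peptide spanning the BACE cleavage site. Substrate at 50 nM, 1 h incubation, termination by Tris addition to neutral pH.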

[2] = molecular target: Recombinant Cat D (Homo sapiens (Human), UniProt P07339); experiment: In vitro enzymatic Cathepsin D (Cat D) FRET assay; assay type: biochemical; conditions: read-out: IC50 IP (μM) CatD
Recombinant Cat D, sequence (P07339 65-412): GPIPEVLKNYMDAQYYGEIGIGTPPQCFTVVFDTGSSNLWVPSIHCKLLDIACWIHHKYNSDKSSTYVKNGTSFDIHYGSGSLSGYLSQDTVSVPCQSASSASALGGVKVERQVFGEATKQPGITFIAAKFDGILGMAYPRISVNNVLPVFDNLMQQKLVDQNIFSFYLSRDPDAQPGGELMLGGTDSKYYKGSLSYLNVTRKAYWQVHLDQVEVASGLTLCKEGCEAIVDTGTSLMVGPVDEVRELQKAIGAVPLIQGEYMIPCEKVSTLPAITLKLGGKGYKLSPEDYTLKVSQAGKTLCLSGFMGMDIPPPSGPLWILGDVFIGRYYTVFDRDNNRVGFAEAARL
Procedure, shortened: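 Recombinant Cat D expressed in CHO cells, assayed in 0.05 M citrate pH 3.5 with 5 mM CHAPS and 10% DMSO final. Reaction started with 20 nM FRET peptide substrate, incubated one hour, then stopped by Tris buffer to neutral pH; fluorescence read at ex 500/em 580 nm.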

[3] = molecular target: human recombinant BACE2 (Homo sapiens (Human), UniProt Q9Y5Z0); experiment: In vitro enzymatic BACE2 FRET assay; assay type: biochemical; conditions: read-out: IC50 IP (μM) BACE2 enzyme
human recombinant BACE2, sequence (Q9Y5Z0 63-518): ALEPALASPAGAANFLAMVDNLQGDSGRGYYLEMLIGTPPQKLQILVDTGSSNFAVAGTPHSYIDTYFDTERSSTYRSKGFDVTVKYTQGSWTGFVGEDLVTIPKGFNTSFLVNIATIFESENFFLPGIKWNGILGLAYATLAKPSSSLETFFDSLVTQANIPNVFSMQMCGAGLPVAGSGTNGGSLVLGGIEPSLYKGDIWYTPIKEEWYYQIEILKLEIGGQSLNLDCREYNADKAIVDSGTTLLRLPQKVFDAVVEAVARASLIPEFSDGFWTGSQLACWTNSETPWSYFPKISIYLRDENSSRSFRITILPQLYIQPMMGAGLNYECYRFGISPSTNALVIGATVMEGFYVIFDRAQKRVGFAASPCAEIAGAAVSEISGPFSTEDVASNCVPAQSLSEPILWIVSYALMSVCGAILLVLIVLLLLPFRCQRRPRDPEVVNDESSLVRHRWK
Procedure, shortened: as §1

[4] = test system: Aβ40 in conditioned medium of cells stably expressing Amyloid Precursor Protein (APP); experiment: In vitro BACE-1 cell-based assay (Aβ40 sandwich ELISA); conditions: read-out: IC50 IP (μM) BACE1 cell
Procedure, shortened: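 Read-out: time-resolved fluorescence (Streptavidin-Europium) of Aβ40 captured by pAb40 and detected with biotinylated 6E10 from supernatants of APP-stable cells. Cells were exposed to compound for 24 h, 10-point dose response, top dose 100 μM or 10 μM, 0.1% DMSO. IC50 fitted to percent of control.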

human recombinant BACE1, sequence (P56817 46-501): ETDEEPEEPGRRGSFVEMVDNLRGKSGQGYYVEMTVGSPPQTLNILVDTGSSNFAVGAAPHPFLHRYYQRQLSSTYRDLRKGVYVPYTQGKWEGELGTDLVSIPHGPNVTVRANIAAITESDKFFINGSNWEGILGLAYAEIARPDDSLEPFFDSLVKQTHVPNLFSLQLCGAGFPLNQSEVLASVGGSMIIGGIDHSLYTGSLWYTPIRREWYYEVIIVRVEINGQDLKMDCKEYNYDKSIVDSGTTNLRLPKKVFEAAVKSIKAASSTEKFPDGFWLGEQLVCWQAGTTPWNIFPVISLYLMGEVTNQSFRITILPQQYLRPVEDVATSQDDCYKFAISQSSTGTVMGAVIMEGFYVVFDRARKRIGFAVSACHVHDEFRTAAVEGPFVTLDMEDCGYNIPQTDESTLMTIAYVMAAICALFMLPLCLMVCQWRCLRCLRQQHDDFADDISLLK

Row | SMILES | IC50 [1] [µM] | IC50 [2] [µM] | IC50 [3] [µM] | IC50 [4] [µM]
1 | C#CCOc1cnc2c(Nc3cnc(F)c([C@@]4(C)N=C(N)S[C@@]5(C(F)F)C[C@@H]45)c3)nccc2n1 [Example 653, N-(5-((1S,5S,6S)-3-amino-1-(difluoromethyl)-5-methyl-2-thia-4-azabicyclo[4.1.0]hept-3-en-5-yl)-6-fluoro-3-pyridinyl)-2-(2-propyn-1-yloxy)pyrido[3,4-b]pyrazin-5-amine] | 0.000544 | 260 | 0.0192 | 0.00151
2 | C[C@]1(c2cc(Nc3nccc4nc(OCc5ncco5)cnc34)cnc2F)N=C(N)S[C@@]2(C(F)F)C[C@@H]12 [Example 654, N-(5-((1S,5S,6S)-3-amino-1-(difluoromethyl)-5-methyl-2-thia-4-azabicyclo[4.1.0]hept-3-en-5-yl)-6-fluoro-3-pyridinyl)-2-(1,3-oxazol-2-ylmethoxy)pyrido[3,4-b]pyrazin-5-amine] | 0.000931 | 861 | 0.0291 | 0.00166
3 | C[C@]1(c2cc(NC(=O)c3ccc(Cl)cn3)cnc2F)N=C(N)S[C@@]2(C(F)F)C[C@@H]12 [Example 655, N-(5-((1S,5S,6S)-3-amino-1-(difluoromethyl)-5-methyl-2-thia-4-azabicyclo[4.1.0]hept-3-en-5-yl)-6-fluoro-3-pyridinyl)-5-chloro-2-pyridinecarboxamide] | 0.00455 | 1720 | < 0.00203 | 0.006
4 | CC(C)NC(=O)c1cnc2c(Nc3cnc(F)c([C@@]4(C)N=C(N)S[C@@]5(C(F)F)C[C@@H]45)c3)nccc2c1 [Example 656, 8-((5-((1S,5S,6S)-3-amino-1-(difluoromethyl)-5-methyl-2-thia-4-azabicyclo[4.1.0]hept-3-en-5-yl)-6-fluoro-3-pyridinyl)amino)-N-(1-methylethyl)-1,7-naphthyridine-3-carboxamide] | 0.387 | 998 | 2.35 | 0.624
5 | C[C@]1(c2cc(Nc3nccc4cc(C#N)cnc34)cnc2F)N=C(N)S[C@@]2(C(F)F)C[C@@H]12 [Example 657, 8-((5-((1S,5S,6S)-3-amino-1-(difluoromethyl)-5-methyl-2-thia-4-azabicyclo[4.1.0]hept-3-en-5-yl)-6-fluoro-3-pyridinyl)amino)-1,7-naphthyridine-3-carbonitrile] | 0.00369 | 306 | 0.00303 | 0.00533
6 | C[C@]1(c2cc(Nc3ncnc4cc(C#N)cnc34)cnc2F)N=C(N)S[C@@]2(C(F)F)C[C@@H]12 [Example 658, 4-((5-((1S,5S,6S)-3-amino-1-(difluoromethyl)-5-methyl-2-thia-4-azabicyclo[4.1.0]hept-3-en-5-yl)-6-fluoro-3-pyridinyl)amino)pyrido[3,2-d]pyrimidine-7-carbonitrile] | 0.0107 | 705 | 0.0293 | 0.0136
7 | C#CCOc1cnc2c(Nc3cnc(F)c([C@@]4(C)N=C(N)S[C@@]5([C@H](O)C(F)(F)F)C[C@H]54)c3)nccc2n1 [Example 659, (1R)-1-((1S,5S,6S)-3-amino-5-(2-fluoro-5-((2-(2-propyn-1-yloxy)pyrido[3,4-b]pyrazin-5-yl)amino)-3-pyridinyl)-5-methyl-2-thia-4-azabicyclo[4.1.0]hept-3-en-1-yl)-2,2,2-trifluoroethanol] | 0.000774 | 462 | 0.00425 | 0.0013
8 | C#CCOc1cnc2c(Nc3cnc(F)c([C@@]4(C)N=C(N)S[C@]5(CO)[C@H]4C5(F)F)c3)nccc2n1 [Example 661, ((1S,5S,6R)-3-amino-7,7-difluoro-5-(2-fluoro-5-((2-(2-propyn-1-yloxy)pyrido[3,4-b]pyrazin-5-yl)amino)-3-pyridinyl)-5-methyl-2-thia-4-azabicyclo[4.1.0]hept-3-en-1-yl)methanol] | 0.000765 | 795 | 0.00392 | 0.00244
9 | C[C@]1(c2cc(Nc3nccc4nc(OCc5ncco5)cnc34)cnc2F)N=C(N)S[C@]2(CO)[C@H]1C2(F)F [Example 663, ((1S,5S,6R)-3-amino-7,7-difluoro-5-(2-fluoro-5-((2-(1,3-oxazol-2-ylmethoxy)pyrido[3,4-b]pyrazin-5-yl)amino)-3-pyridinyl)-5-methyl-2-thia-4-azabicyclo[4.1.0]hept-3-en-1-yl)methanol] | 0.00048 | 601 | 0.0174 | 0.00338
10 | C[C@]1(c2cc(Nc3ncnc4cc(OCc5ncco5)cnc34)cnc2F)N=C(N)S[C@]2(CO)[C@H]1C2(F)F [Example 664, ((1S,5S,6R)-3-amino-7,7-difluoro-5-(2-fluoro-5-((7-(1,3-oxazol-2-ylmethoxy)pyrido[3,2-d]pyrimidin-4-yl)amino)-3-pyridinyl)-5-methyl-2-thia-4-azabicyclo[4.1.0]hept-3-en-1-yl)methanol] | 0.000274 | > 400 | 0.046 | 0.0143
11 | C#CCOc1cnc2c(Nc3cnc(F)c([C@@]4(C)N=C(N)S[C@@]5([C@H](O)C(F)(F)F)C[C@H]54)c3)ncnc2c1 [Example 665, (1R)-1-((1S,5S,6S)-3-amino-5-(2-fluoro-5-((7-(2-propyn-1-yloxy)pyrido[3,2-d]pyrimidin-4-yl)amino)-3-pyridinyl)-5-methyl-2-thia-4-azabicyclo[4.1.0]hept-3-en-1-yl)-2,2,2-trifluoroethanol] | 0.00165 | 1110 | 0.0383 | 0.00737
12 | C#CCOc1cnc2c(Nc3cnc(F)c([C@@]4(C)N=C(N)S[C@@]5([C@@H](O)C(F)(F)F)C[C@H]54)c3)ncnc2c1 [Example 666, (1S)-1-((1S,5S,6S)-3-amino-5-(2-fluoro-5-((7-(2-propyn-1-yloxy)pyrido[3,2-d]pyrimidin-4-yl)ammo)-3-pyridinyl)-5-methyl-2-thia-4-azabicyclo[4.1.0]hept-3-en-1-yl)-2,2,2-trifluoroethanol] | 0.00201 | 1690 | 0.177 | 0.00772
13 | C[C@]1(c2cc(Nc3ncnc4cc(OCc5ncco5)cnc34)cnc2F)N=C(N)S[C@@]2([C@H](O)C(F)(F)F)C[C@H]21 [Example 667, (1R)-1-((1S,5S,6S)-3-amino-5-(2-fluoro-5-((7-(1,3-oxazol-2-ylmethoxy)pyrido[3,2-d]pyrimidin-4-yl)amino)-3-pyridinyl)-5-methyl-2-thia-4-azabicyclo[4.1.0]hept-3-en-1-yl)-2,2,2-trifluoroethanol] | 0.00262 | 1160 | 0.0599 | 0.00362
14 | C[C@]1(c2cc(Nc3ncnc4cc(OCc5ncco5)cnc34)cnc2F)N=C(N)S[C@@]2([C@@H](O)C(F)(F)F)C[C@H]21 [Example 668, (1S)-1-((1S,5S,6S)-3-amino-5-(2-fluoro-5-((7-(1,3-oxazol-2-ylmethoxy)pyrido[3,2-d]pyrimidin-4-yl)amino)-3-pyridinyl)-5-methyl-2-thia-4-azabicyclo[4.1.0]hept-3-en-1-yl)-2,2,2-trifluoroethanol] | 0.0033 | 1970 | 0.233 | 0.00697
15 | C[C@]1(c2cc(Nc3nccc4cc(OCc5ncco5)cnc34)cnc2F)N=C(N)S[C@]2(CO)[C@H]1C2(F)F [Example 669, ((1S,5S,6R)-3-amino-7,7-difluoro-5-(2-fluoro-5-((3-(1,3-oxazol-2-ylmethoxy)-1,7-naphthyridin-8-yl)amino)-3-pyridinyl)-5-methyl-2-thia-4-azabicyclo[4.1.0]hept-3-en-1-yl)methanol] | 0.00119 | 1140 | 0.036 | 0.00593
16 | C#CCOc1cnc2c(Nc3cnc(F)c([C@@]4(C)N=C(N)S[C@@]5(CO)C[C@H]54)c3)ncnc2c1 [Example 670, ((1S,5S,6S)-3-amino-5-(2-fluoro-5-((7-(2-propyn-1-yloxy)pyrido[3,2-d]pyrimidin-4-yl)amino)-3-pyridinyl)-5-methyl-2-thia-4-azabicyclo[4.1.0]hept-3-en-1-yl)methanol] | 0.0024 | 730 | 0.17 | 0.000969
17 | C#CCOc1cnc2c(Nc3ccc(F)c([C@@]4(C)N=C(N)S[C@@]5([C@H](O)C(F)(F)F)C[C@H]54)c3)nccc2n1 [Example 671, (1R)-1-((1S,5S,6S)-3-amino-5-(2-fluoro-5-((2-(2-propyn-1-yloxy)pyrido[3,4-b]pyrazin-5-yl)amino)phenyl)-5-methyl-2-thia-4-azabicyclo[4.1.0]hept-3-en-1-yl)-2,2,2,-trifluoroethanol] | 0.000943 | 1040 | 0.0236 | 0.00177
18 | C#CCOc1cnc2c(Nc3ccc(F)c([C@@]4(C)N=C(N)S[C@@]5([C@@H](O)C(F)(F)F)C[C@H]54)c3)nccc2n1 [Example 672, (1S)-1-((1S,5S,6S)-3-amino-5-(2-fluoro-5-((2-(2-propyn-1-yloxy)pyrido[3,4-b]pyrazin-5-yl)amino)phenyl)-5-methyl-2-thia-4-azabicyclo[4.1.0]hept-3-en-1-yl)-2,2,2-trifluoroethanol] | 0.00142 | 638 | 0.0685 | 0.007
